The results in this text go back to patent US7718809B2, “Chromane substituted benzimidazole derivatives as acid pump antagonists” (RaQualia Pharma Inc., priority 2005, dated 2010).

For orientation: pIC50 means −log10 of the IC50, conventionally taken in molar units. High values mean a low IC50, low ones a high IC50.

For experiment [1], the target named is T1, porcine gastric H+/K+-ATPase (Sus scrofa, UniProt P19156).
T1 construct: prepared from mucous membrane in fresh porcine stomachs by homogenization; from tissue; host or cells: mucous membrane of fresh porcine stomachs (gastric vesicles)
Kind of experiment: Ion-tight porcine gastric H+/K+-ATPase inhibition. Conditions: ion-tight gastric vesicles, 150 mM KCl, valinomycin, pH 7.4, 37° C. It is filed as biochemical. On the procedure:
The porcine gastric vesicles for Porcine gastric H^+/K^+-ATPase inhibition assays were prepared from mucous membrane in fresh porcine stomachs by homogenization with a tight-fitted polytetrafluoroethylene (Teflone®) homogenizer in 0.25 M sucrose at 4° C. The crude pellet was removed with centrifugation at 20,000 g for 30 min. Then supernatant was centrifuged at 100,000 g for 30 min. The resulting pellet was re-suspended in 0.25 M sucrose, and then subjected to density gradient centrifugation at 132,000 g for 90 min. The gastric vesicles were collected from interface on 0.25 M sucrose layer containing 7% Ficoll™ PM400(Amersham Biosciences). This procedure was performed in a cold room.
Ion-tight porcine gastric H^+/K^+-ATPase inhibition was measured according to the modified method described in Biochemical Pharmacology, 1988, 37, 2231-2236.
The isolated vesicles were kept in deep-freezer until use. For enzyme assay, vesicles were diluted with 3 mM MgSO4 containing 5 mM Tris (pH 7.4 at 37° C).
Enzyme reaction was performed incubating 150 mM KCl, 3 mM Na2ATP, 3 mM MgSO4, 15 μM valinomycin and 3.0 μg of vesicles for 30 minutes at 37° C. in a final 60 μl of reaction mixture (5 mM Tris, pH 7.4) with or without the test compound. Enzyme reaction was stopped by adding 10% SDS. Released inorganic phosphate from ATP was detected by incubating with mixture of 1 part of 35 mM ammonium molybdate tetrahydrate in 15 mM Zinc acetate hydrate and 4 parts of 10% ascorbic acid (pH 5.0), resulting in phosphomolybdate, which has optical density at 750 nm.

The test system of experiment [2] is gastric acid secretion. Briefly: Inhibition of gastric acid secretion in the Heidenhain pouch dog. The format is in vivo, Beagle dogs. Conditions: histamine-stimulated (80 μg/kg/h) acid secretion, oral or intravenous bolus administration. On the procedure: Male Beagle dogs weighing 7-15 kg with Heidenhain pouch [Heidenhain R: Arch Ges Physiol. 1879; 19: 148-167] were used. The animals were allowed to recover from surgery for at least three weeks before the experiments. The animals were kept at a 12 hour light-dark rhythm, housed singly. They received standard food once daily at 11:00 a.m. and tap water ad libitum, and were fasted overnight prior to the experiment, with free access to water. Gastric juice samples were collected throughout the experiment by gravity drainage every 15 min. Acidity in the gastric juice was measured by titration to the end point of pH 7.0. Acid secretion was stimulated by a continuous intravenous infusion of histamine (80 μg/kg/h). Oral or intravenous bolus administration of the test compounds was done 90 minutes after commencement of the histamine infusion. The acid secretion was monitored after the administration. The activity was evaluated by the maximum inhibition relative to the corresponding control value.

pIC50: −log10 of the molar value.

T1 sequence (P19156 2-1034 limits assumed): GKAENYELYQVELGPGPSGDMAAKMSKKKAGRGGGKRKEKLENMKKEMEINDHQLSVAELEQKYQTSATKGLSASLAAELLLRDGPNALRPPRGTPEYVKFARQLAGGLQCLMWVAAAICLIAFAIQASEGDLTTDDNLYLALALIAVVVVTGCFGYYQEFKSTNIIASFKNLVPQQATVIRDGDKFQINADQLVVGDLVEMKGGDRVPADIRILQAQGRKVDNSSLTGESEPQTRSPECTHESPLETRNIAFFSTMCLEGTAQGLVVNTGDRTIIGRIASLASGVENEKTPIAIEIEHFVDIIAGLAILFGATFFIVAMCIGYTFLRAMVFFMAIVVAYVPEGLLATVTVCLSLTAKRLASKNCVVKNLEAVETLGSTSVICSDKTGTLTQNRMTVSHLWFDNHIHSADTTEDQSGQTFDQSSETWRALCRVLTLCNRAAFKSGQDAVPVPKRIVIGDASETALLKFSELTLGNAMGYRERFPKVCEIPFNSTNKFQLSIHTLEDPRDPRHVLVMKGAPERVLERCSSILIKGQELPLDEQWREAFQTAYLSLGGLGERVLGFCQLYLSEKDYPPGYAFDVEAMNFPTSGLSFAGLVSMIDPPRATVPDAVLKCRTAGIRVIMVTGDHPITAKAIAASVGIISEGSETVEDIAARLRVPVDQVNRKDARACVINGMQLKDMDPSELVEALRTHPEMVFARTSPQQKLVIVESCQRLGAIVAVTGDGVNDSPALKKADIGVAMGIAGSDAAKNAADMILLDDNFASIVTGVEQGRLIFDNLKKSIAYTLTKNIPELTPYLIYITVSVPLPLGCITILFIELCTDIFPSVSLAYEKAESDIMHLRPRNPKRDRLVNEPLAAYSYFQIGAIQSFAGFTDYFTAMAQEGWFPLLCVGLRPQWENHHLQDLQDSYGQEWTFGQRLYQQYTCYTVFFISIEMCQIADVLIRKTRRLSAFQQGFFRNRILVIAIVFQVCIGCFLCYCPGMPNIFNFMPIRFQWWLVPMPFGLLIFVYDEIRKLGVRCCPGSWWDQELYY
T1 sequence (P18434 whole entry partner): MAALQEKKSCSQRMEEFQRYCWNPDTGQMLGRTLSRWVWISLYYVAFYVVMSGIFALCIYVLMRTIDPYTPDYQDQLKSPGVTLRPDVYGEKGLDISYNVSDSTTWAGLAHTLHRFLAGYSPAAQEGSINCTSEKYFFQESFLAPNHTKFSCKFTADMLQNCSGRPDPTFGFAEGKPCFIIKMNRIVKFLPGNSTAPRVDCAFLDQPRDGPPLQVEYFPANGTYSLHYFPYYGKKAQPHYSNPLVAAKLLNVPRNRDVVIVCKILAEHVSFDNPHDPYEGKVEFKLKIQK

`Cc1nc2c(OC3CCOc4cc(F)ccc43)cc(C(=O)N(C)C)cc2n1C` (racemic) [Example 2, 4-[(7-Fluoro-3,4-dihydro-2H-chromen-4-yl)oxy]-N,N,1,2-tetramethyl-1H-benzimidazole-6-carboxamide] gave a pIC50 in experiment [1] of 7.16. The same measure, in the same setting: in the case of `Cc1nc2c(OC3CCOc4cc(F)cc(F)c43)cc(C(=O)N3CC(C)(O)C3)cc2n1C` (stereo not drawn) [Example 26, 1-({4-[(5,7-Difluoro-3,4-dihydro-2H-chromen-4-yl)oxy]-1,2-dimethyl-1H-benzimidazol-6-yl}carbonyl)-3-methylazetidin-3-ol] it was 6.32; in that of `Cc1nc2c(OC3CCOc4cc(F)cc(F)c43)cc(C(=O)N3CCC3)cc2n1C` (single isomer, unassigned; (+)) [Example 24, (+)-6-(Azetidin-1-ylcarbonyl)-4-[(5,7-difluoro-3,4-dihydro-2H-chromen-4yl)oxy]-1,2-dimethyl-1H-benzimidazole], 6.21; in that of `Cc1nc2c(OC3CCOc4ccccc43)cc(C(=O)N3CCC[C@@H]3CO)cc2n1C` (stereo partly drawn) [Example 14], 6.01. In experiment [1], `CC(=O)N1CCN(C(=O)c2cc(OC3CCOc4ccccc43)c3nc(C)n(C)c3c2)CC1` (stereo not drawn) [Example 16, 6-[(4-Acetylpiperazin-1-yl)carbonyl]-4-(3,4-dihydro-2H-chromen-4-yloxy)-1,2-dimethyl-1H-benzimidazole] showed a pIC50 of 6.85. `Cc1nc2c(OC3CCOc4cc(F)cc(F)c43)cc(C(=O)N3CCCC3)cc2n1C` (stereo not drawn) [Example 25, 4-[(5,7-Difluoro-3,4-dihydro-2H-chromen-4-yl)oxy]-1,2-dimethyl-6-(pyrrolidin-1-ylcarbonyl)-1H-benzimidazole] had a pIC50 in experiment [1] of 6.23. `CNC(=O)c1cc(OC2CCOc3cc(F)cc(F)c32)c2nc(C)n(C)c2c1` (racemic) [Example 19, 4-[(5,7-Difluoro-3,4-dihydro-2H-chromen-4-yl)oxy]-N,1,2-trimethyl-1H-benzimidazole-6-carboxamide] gave a pIC50 in experiment [1] of 6.17.

In turn, `Cc1nc2c(OC3CCOc4cccc(F)c43)cc(C(=O)N(C)C)cc2n1C` (single isomer, unassigned; (+)) [Example 18, (+)-4-{[5-Fluoro-3,4-dihydro-2H-chromen-4-yl]oxy}-N,N,1,2-tetramethyl-1H-benzimidazole-6-carboxamide] showed a pIC50 in experiment [1] of 6.62. `Cc1nc2c(OC3CCOc4cc(F)cc(F)c43)cc(C(=O)N(C)C)cc2n1C` (single isomer, unassigned; (+)) [Example 7, (+)-4-[(5,7-Difluoro-3,4-dihydro-2H-chromen-4-yl)oxy]-N,N,1,2-tetramethyl-1H-benzimidazole-6-carboxamide]: the pIC50 in experiment [1] is 6.66. `Cc1nc2c(OC3CCOc4ccccc43)cc(C(=O)N(C)CCO)cc2n1C` (stereo not drawn) [Example 11, 4-(3,4-Dihydro-2H-chromen-4-yloxy)-N-(2-hydroxyethyl)-N,1,2-trimethyl-1H-benzimidazole-6-carboxamide] had a pIC50 in experiment [1] of 6.37. This pIC50 lies 0.29 log units lower than the previous one.

In experiment [1], `Cc1cccc2c1C(Oc1cc(C(=O)N(C)C)cc3c1nc(C)n3C)CCO2` (stereo not drawn) [Example 8, N,N,1,2-Tetramethyl-4-[(5-methyl-3,4-dihydro-2H-chromen-4-yl)oxy]-1H-benzimidazole-6-carboxamide] had a negative-log IC50 (pIC50) of 6.74. For the molecule `Cc1nc2c(OC3CCOc4ccccc43)cc(C(=O)N3CC[C@H](O)C3)cc2n1C` (stereo partly drawn) [Example 12, (3S)-1-{[4-(3,4-Dihydro-2H-chromen-4-yloxy)-1,2-dimethyl-1H-benzimidazol-6-yl]carbonyl}pyrrolidin-3-ol], the pIC50 in experiment [1] was 6.17. As for `Cc1nc2c(OC3CCOc4cc(F)cc(F)c43)cc(C(=O)N(C)C)cc2n1C` (single isomer, unassigned; (-)) [Example 6, (−)-4-[(5,7-Difluoro-3,4-dihydro-2H-chromen-4-yl)oxy]-N,N,1,2-tetramethyl-1H-benzimidazole-6-carboxamide], in experiment [2], the “inhibitory activity (maximum inhibition of acid secretion relative to control)” value is reported as “good inhibitory activity”. The pIC50 in experiment [1] is 6.68. In experiment [1], `Cc1nc2c(OC3CCOc4cccc(F)c43)cc(C(=O)N(C)C)cc2n1C` (racemic) [Example 9, 4-[(5-Fluoro-3,4-dihydro-2H-chromen-4-yl)oxy]-N,N,1,2-tetramethyl-1H-benzimidazole-6-carboxamide] showed a negative logarithm of the IC50 (pIC50) of 6.02. With `CNC(=O)c1cc(OC2CCOc3cc(F)cc(F)c32)c2nc(C)n(C)c2c1` (single isomer, unassigned; (-)) [Example 20, (−)-4-[(5,7-Difluoro-3,4-dihydro-2H-chromen-4-yl)oxy]-N,1,2-trimethyl-1H-benzimidazole-6-carboxamide], the pIC50 in experiment [1] is 6.21. The molecule `Cc1nc2c(OC3CCOc4ccccc43)cc(C(=O)N3CCN(C)CC3)cc2n1C` (stereo not drawn) [Example 15, 4-(3,4-Dihydro-2H-chromen-4-yloxy)-1,2-dimethyl-6-[(4-methylpiperazin-1-yl)carbonyl]-1H-benzimidazole] showed a negative-log IC50 (pIC50) in experiment [1] of 6.02. `Cc1nc2c(OC3CCOc4cc(F)cc(F)c43)cc(C(=O)N3CCC3)cc2n1C` (single isomer, unassigned; (-)) [Example 23, (−)-6-(Azetidin-1-ylcarbonyl)-4-[(5,7-difluoro-3,4-dihydro-2H-chromen-4-yl)oxy]-1,2-dimethyl-1H-benzimidazole] gave a negative logarithm of the IC50 (pIC50) in experiment [1] of 6.36. In experiment [1], `Cc1nc2c(OC3CCOc4cccc(F)c43)cc(C(=O)N(C)C)cc2n1C` (single isomer, unassigned; (-)) [Example 17, (−)-4-{[5-Fluoro-3,4-dihydro-2H-chromen-4-yl]oxy}-N,N,1,2-tetramethyl-1H-benzimidazole-6-carboxamide] had a negative-log IC50 (pIC50) of 6.47. This pIC50 and that of the molecule before are within 0.2 log units of each other. `Cc1nc2c(OC3CCOc4cc(F)ccc43)cc(C(=O)N(C)C)cc2n1C` (single isomer, unassigned; (+)) [Example 4, (+)-4-[(7-Fluoro-3,4-dihydro-2H-chromen-4-yl)oxy]-N,N,1,2-tetramethyl-1H-benzimidazole-6-carboxamide] gave a negative-log IC50 (pIC50) in experiment [1] of 6.36. `CNC(=O)c1cc(OC2CCOc3cc(F)cc(F)c32)c2nc(C)n(C)c2c1` (single isomer, unassigned; (+)) [Example 21, (+)-4-[(5,7-Difluoro-3,4-dihydro-2H-chromen-4-yl)oxy]-N,1,2-trimethyl-1H-benzimidazole-6-carboxamide] had a negative-log IC50 (pIC50) in experiment [1] of 6.31. Consider `Cc1nc2c(OC3COCc4ccccc43)cc(C(=O)N(C)C)cc2n1C` (stereo not drawn) [Example 10, 4-(3,4-Dihydro-1H-isochromen-4-yloxy)-N,N,1,2-tetramethvl-1H-benzimidazole-6-carboxamide], for which the pIC50 in experiment [1] was 6.49. In turn, `Cc1nc2c(OC3CCOc4cc(F)ccc43)cc(C(=O)N(C)C)cc2n1C` (single isomer, unassigned; (-)) [Example 3, (−)-4-[(7-Fluoro-3,4-dihydro-2H-chromen-4-yl)oxy]-N,N,1,2-tetramethvl-1H-benzimidazole-6-carboxamide] gave a pIC50 in experiment [1] of 6.36. The molecule `Cc1nc2c(OC3CCOc4ccccc43)cc(C(=O)N3CC[C@@H](O)C3)cc2n1C` (stereo partly drawn) [Example 13, (3R)-1-{[4-(3,4-Dihydro-2H-chromen-4-yloxy)-1,2-dimethyl-1H-benzimidazol-6-yl]carbonyl}pyrrolidin-3-ol] showed a negative-log IC50 (pIC50) in experiment [1] of 6.92. For the molecule `Cc1nc2c(OC3CCOc4ccccc43)cc(C(=O)N(C)C)cc2n1C` (stereo not drawn) [Example 1, 4-(3,4-Dihydro-2H-chromen-4-yloxy)-N,N,1,2-tetramethyl-1H-benzimidazole-6-carboxamide], the pIC50 in experiment [1] was 6.25. The molecule `Cc1nc2c(OC3CCOc4cc(F)cc(F)c43)cc(C(=O)N(C)C)cc2n1C` (racemic) [Example 5, 4-[(5,7-Difluoro-3,4-dihydro-2H-chromen-4-yl)oxy]-N,N,1,2-tetramethyl-1H-benzimidazole-6-carboxamide] gave a pIC50 in experiment [1] of 7.05. As to `Cc1nc2c(OC3CCOc4cc(F)cc(F)c43)cc(C(=O)N3CCC3)cc2n1C` (racemic) [Example 22, 6-(Azetidin-1-ylcarbonyl)-4-[(5,7-difluoro-3,4-dihydro-2H-chromen-4-yl)oxy]-1,2-dimethyl-1H-benzimidazole], the pIC50 in experiment [1] was 6.74. This pIC50 lies 0.31 log units lower than the previous one.
